# Data: the supplement of paper PMC9663587
# How the values were obtained:
# THZ1 = compound: CN(C)C/C=C/C(=O)Nc1ccc(C(=O)Nc2cccc(Nc3ncc(Cl)c(-c4c[nH]c5ccccc45)n3)c2)cc1 [THZ1]; test: GR value, 72 h; higher = faster growth (1 = untreated, <0 = killing);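 also: breast cancer and non-malignant breast epithelial lines, nine half-log doses, viable cells counted by Hoechst and LIVE/DEAD dye imaging versus time-zero plates and DMSO controls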
# [1] = compound: CCc1cnn2c(NCc3ccc[n+]([O-])c3)cc(N3CCCC[C@H]3CCO)nc12; test: as above
# [2] = compound: CCN1CCN(Cc2ccc(Nc3ncc(F)c(-c4cc(F)c5nc(C)n(C(C)C)c5c4)n3)nc2)CC1; test: as above
# BSJ-03-123 [3] = compound: T1, CC(=O)c1c(C)c2cnc(Nc3ccc(N4CCN(CCOCCOCCOCCNC(=O)COc5cccc6c5C(=O)N(C5CCC(=O)NC5=O)C6=O)CC4)cn3)nc2n(C2CCCC2)c1=O [BSJ-03-123]; test: as above
# YKL-5-124 = compound: C=CC(=O)Nc1ccc(C(=O)Nc2[nH]nc3c2CN(C(=O)N[C@H](CN(C)C)c2ccccc2)C3(C)C)cc1 [YKL-5-124]; test: as above
# THZ531 = compound: CN(C)C/C=C/C(=O)Nc1ccc(C(=O)N2CCC[C@@H](Nc3ncc(Cl)c(-c4c[nH]c5ccccc45)n3)C2)cc1 [THZ531]; test: as above
# LEE011/Ribociclib = compound: CN(C)C(=O)c1cc2cnc(Nc3ccc(N4CCNCC4)cn3)nc2n1C1CCCC1 [LEE011/Ribociclib]; test: as above
# Flavopiridol [4] = compound: T2, CN1CC[C@H](c2c(O)cc(O)c3c(=O)cc(-c4ccccc4Cl)oc23)[C@H](O)C1 [Flavopiridol]; test: as above
# BVD523 = compound: CC(C)Nc1cc(-c2c[nH]c(C(=O)N[C@H](CO)c3cccc(Cl)c3)c2)c(Cl)cn1 [BVD523]
# R0-3306 = compound: C1=CC2=C(C=CC(=C2)C=C3C(=O)NC(=NCC4=CC=CS4)S3)N=C1 [R0-3306]
# Paclitaxel = compound: CC(=O)O[C@H]1C(=O)[C@@]2(C)[C@H]([C@H](OC(=O)c3ccccc3)[C@]3(O)C[C@H](OC(=O)[C@H](O)[C@@H](NC(=O)c4ccccc4)c4ccccc4)C(C)=C1C3(C)C)[C@]1(OC(C)=O)CO[C@@H]1C[C@@H]2O [Paclitaxel]
# [5] = compound: CCC1=CN=CN=C1N2CCN(CC2)CC3=NC4=C(N3)C=C(C=C4)C(F)(F)F
# BSJ-03-123 [6] = compound: T1, BSJ-03-123
# AZD5363 = compound: NC1(C(=O)N[C@@H](CCO)c2ccc(Cl)cc2)CCN(c2nc[nH]c3nccc2-3)CC1 [AZD5363]
# [7] = compound: CO[C@@H](C)Cn1c(=O)n(C)c2cnc3ccc(-c4cncc(C(C)(C)O)c4)cc3c21
# Neratinib/HKI272 = compound: CCOc1cc2ncc(C#N)c(Nc3ccc(OCc4ccccn4)c(Cl)c3)c2cc1NC(=O)/C=C/CN(C)C [Neratinib/HKI272]
# Flavopiridol [8] = compound: T2, Flavopiridol
# 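For GR50, 72 h in this document: breast cancer and non-malignant breast epithelial cell lines, Deep Dye Drop or Dye Drop imaging, nine half-log doses, GR normalized to time-zero plates and DMSO-only controls.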
cell line,measurement,setting,value
SUM149,GR value,THZ1; 0.0001 µM,0.968 GR
same,GR value,THZ1; 0.0003162 µM,0.963 GR
same,GR value,THZ1; 0.001 µM,1.04 GR
same,GR value,THZ1; 0.003162 µM,0.927 GR
same,GR value,THZ1; 0.01 µM,0.923 GR
same,GR value,THZ1; 0.03162 µM,0.704 GR
same,GR value,THZ1; 0.1 µM,0.165 GR
same,GR value,THZ1; 0.3162 µM,-0.351 GR
same,GR value,THZ1; 1 µM,-0.506 GR
same,GR value,[1]; 0.0001 µM,1.01 GR
same,GR value,[1]; 0.0003162 µM,1.04 GR
same,GR value,[1]; 0.001 µM,1.01 GR
same,GR value,[1]; 0.003162 µM,1.03 GR
same,GR value,[1]; 0.01 µM,0.828 GR
same,GR value,[1]; 0.03162 µM,-0.457 GR
same,GR value,[1]; 0.1 µM,-0.575 GR
same,GR value,[1]; 0.3162 µM,-0.578 GR
same,GR value,[1]; 1 µM,-0.561 GR
same,GR value,[2]; 0.001 µM,0.973 GR
same,GR value,[2]; 0.003162 µM,1.02 GR
same,GR value,[2]; 0.01 µM,0.875 GR
same,GR value,[2]; 0.03162 µM,0.751 GR
same,GR value,[2]; 0.1 µM,0.666 GR
same,GR value,[2]; 0.3162 µM,0.562 GR
same,GR value,[2]; 1 µM,0.417 GR
same,GR value,[2]; 3.162 µM,0.375 GR
same,GR value,[2]; 10 µM,0.0944 GR
same,GR value,BSJ-03-123 [3]; 0.001 µM,0.996 GR
same,GR value,BSJ-03-123 [3]; 0.003162 µM,0.91 GR
same,GR value,BSJ-03-123 [3]; 0.01 µM,0.904 GR
same,GR value,BSJ-03-123 [3]; 0.03162 µM,0.794 GR
same,GR value,BSJ-03-123 [3]; 0.1 µM,0.81 GR
same,GR value,BSJ-03-123 [3]; 0.3162 µM,0.72 GR
same,GR value,BSJ-03-123 [3]; 1 µM,0.579 GR
same,GR value,BSJ-03-123 [3]; 3.162 µM,0.428 GR
same,GR value,BSJ-03-123 [3]; 10 µM,0.0273 GR
same,GR value,YKL-5-124; 0.001 µM,0.351 GR
same,GR value,YKL-5-124; 0.003162 µM,0.226 GR
same,GR value,YKL-5-124; 0.01 µM,0.228 GR
same,GR value,YKL-5-124; 0.03162 µM,0.141 GR
same,GR value,YKL-5-124; 0.1 µM,0.132 GR
same,GR value,YKL-5-124; 0.3162 µM,0.114 GR
same,GR value,YKL-5-124; 1 µM,0.0596 GR
same,GR value,YKL-5-124; 3.162 µM,0.0431 GR
same,GR value,YKL-5-124; 10 µM,-0.104 GR
same,GR value,THZ531; 0.0001 µM,0.986 GR
same,GR value,THZ531; 0.0003162 µM,0.996 GR
same,GR value,THZ531; 0.001 µM,0.931 GR
same,GR value,THZ531; 0.003162 µM,1.03 GR
same,GR value,THZ531; 0.01 µM,1.05 GR
same,GR value,THZ531; 0.03162 µM,0.999 GR
same,GR value,THZ531; 0.1 µM,0.963 GR
same,GR value,THZ531; 0.3162 µM,0.598 GR
same,GR value,THZ531; 1 µM,-0.539 GR
same,GR value,LEE011/Ribociclib; 0.001 µM,0.951 GR
same,GR value,LEE011/Ribociclib; 0.003162 µM,0.904 GR
same,GR value,LEE011/Ribociclib; 0.01 µM,0.916 GR
same,GR value,LEE011/Ribociclib; 0.03162 µM,0.885 GR
same,GR value,LEE011/Ribociclib; 0.1 µM,0.776 GR
same,GR value,LEE011/Ribociclib; 0.3162 µM,0.771 GR
same,GR value,LEE011/Ribociclib; 1 µM,0.764 GR
same,GR value,LEE011/Ribociclib; 3.162 µM,0.669 GR
same,GR value,LEE011/Ribociclib; 10 µM,0.599 GR
same,GR value,Flavopiridol [4]; 0.0001 µM,0.972 GR
same,GR value,Flavopiridol [4]; 0.0003162 µM,1.01 GR
same,GR value,Flavopiridol [4]; 0.001 µM,0.951 GR
same,GR value,Flavopiridol [4]; 0.003162 µM,0.944 GR
same,GR value,Flavopiridol [4]; 0.01 µM,0.862 GR
same,GR value,Flavopiridol [4]; 0.03162 µM,0.964 GR
same,GR value,Flavopiridol [4]; 0.1 µM,0.788 GR
same,GR value,Flavopiridol [4]; 0.3162 µM,0.177 GR
same,GR value,Flavopiridol [4]; 1 µM,-0.591 GR
same,"GR50, 72 h",BVD523,1.96 µM
same,"GR50, 72 h",R0-3306,4.86 µM
same,"GR50, 72 h",Paclitaxel,0.00159 µM
same,"GR50, 72 h",[5],> 10 µM
same,"GR50, 72 h",BSJ-03-123 [6],1.33 µM
same,"GR50, 72 h",AZD5363,6.67 µM
same,"GR50, 72 h",[7],1.55 µM
same,"GR50, 72 h",Neratinib/HKI272,0.0697 µM
same,"GR50, 72 h",Flavopiridol [8],0.196 µM
